The source of these data is patent publication US20250188194A1, “Method of treatment” (Nucleus Therapeutics Pty Ltd, priority 2021, published 2025).

“Also recorded” adds a separate entry of the source.

This experiment concerns differentiated PLB-985 cells. Kind of experiment: Quantifying DNA released (adherent NET-DNA) after PMA stimulation by spectrophotometry. The note with it: 1, 10 or 50 μM GSK484 one hour prior to PMA; N=2. It counts as cell-based, human. The method, then: The results of the DAPI and SYTOX™ Green staining studies in FIG. 2C, 2D are consistent with DX1-mediated inhibition of chromatin decondensation and DNA release by differentiated PLB-985 cells. To further probe this effect, DNA-protein release was measured by differentiated PLB-985 cells after PMA stimulation by resuspending and quantifying DNA-protein complexes adherent to wells by spectrophotometry using a previously described protocol for isolation and quantification of NET-DNA in cell culture. This assay is based on the concept that intact cells for the most part remain in suspension, while DNA-protein complexes released in NETs are at least partially adhered to wells. This distinction allows for separation of intact cells from adherent NET-DNA by aspiration of the cell culture supernatants, followed by resuspension of adherent DNA-protein complexes and quantification by spectrophotometry.
Next, the ability of this assay to detect the effect of a known NETosis inhibitor on DNA release by differentiated PLB-985 cells stimulated by PMA was verified. […] Differentiated PLB-985 cells were treated with 0-50 μM of GSK484 for one hour prior to stimulation with PMA, followed by quantification of adherent DNA by spectrophotometry. […]

In the case of `COc1cc(C(=O)N2CC[C@@H](O)[C@@H](N)C2)cc2nc(-c3cc4ccccc4n3CC3CC3)n(C)c12` [GSK484], the “DNA release in response to PMA (adherent DNA by spectrophotometry)” value is on record as “reduced extracellular DNA in a dose-dependent manner; also recorded: dose-dependent inhibition of DNA release”.
